How the values were obtained:
[1] = test system: Floratam St. Augustine grass; experiment: Phytotoxicity rating, St. Augustine grass (Example 9); type: in vivo; settings: for Phytotoxicity - St. Augustine Grass: scale 0-5, 5=worst
Description: In this Example, the effect of a fertilizer comprising lysine on warn season turfgrass growth was examined. The effects of lysine (HCl) and LIQUID LYSINE on a common type of lawn quality turfgrass (St. Augustine grass) were compared with those of urea and Milorganite. St. Augustine grass is a commonly utilized turfgrass throughout the warm, tropical zones for lawn turf and is a commercially significant species.
Twelve fertilizer treatments comprising three concentrations of each fertilizer composition (Milorganite (N—P—K, 6-2-0), urea N—P—K, 46-0-0), LIQUID LYSINE (N—P—K, 10-2-1), and lysine (HCl) (N—P—K, 15-2-1)) were prepared and applied to 4 replications of Floratam St. Augustine grass. The lysine (HCl) was dissolved in water prior to application. Each fertilizer treatment was applied in concentrations of 0.5 lb N/1000 ft^2/month, 1.0 lb N/1000 ft^2/month and 3.0 lb N/1000 ft^2/month. The urea, LIQUID LYSINE and lysine (HCl) were applied as foliar liquids, while Milorganite was applied as a granular fertilizer. Plot size was 1 m×2 m set up as a randomized complete block. Plots were mowed at 3.0 inches before fertilizer application. Irrigation (0.15 inch) was applied following application. Plots were rated for turfgrass quality and color (scale of 1-10 where 10=dark green turf, 1=dead/brown turf; and 6=minimally acceptable turf) and phytotoxicity (scale of 0-5, where 5=worst, and 2=minimally objectionable) throughout the study period. Quality, color, and phytotoxicity were measured on 2 days before application (day −2) and day 2, day 5, day 15 and day 21 after application. All data was subject to statistical analysis and significant means were determined. Average turfgrass quality ratings for the treatments are presented in Table 6 and the quality results for application rates of 1.0 lb N/1000 ft^2/month are graphically presented in FIG. 2.

[2] = test system: Pennlinks creeping bentgrass for greens; experiment: Phytotoxic injury rating, greens creeping bentgrass (Example 16); type: in vivo
Description: In this Example, the effect of a fertilizer comprising lysine on cool season greens quality turfgrass growth was examined. The effects of lysine (HCl) and LIQUID LYSINE on a common type of golf course greens quality turfgrass (Pennlinks creeping bentgrass for greens, mown at 0.1875 in height of cut) were compared with those of urea, Milorganite and a blended fertilizer (a blend of methylene urea and urea in an approximately 1:1 ratio).
Fifteen fertilizer treatments comprising three concentrations of each fertilizer composition (Milorganite (N—P—K, 6-2-0), urea (N—P—K, 46-0-0), a blended fertilizer, LIQUID LYSINE N—P—K, 10-2-1), and lysine (HCl) (N—P—K, 15-2-1)) were prepared and applied to 3 replications of well established Pennlinks creeping bentgrass mown to 0.1875 in height cut. The urea, lysine (HCl), and LIQUID LYSINE were dissolved/suspended in 1.5 gal water prior to application. Each fertilizer treatment was applied in concentrations of 0.125 lb N/1000 ft^2/week, 0.250 lb N/1000 ft^2/week and 0.750 lb N/1000 ft^2/week. The urea, LIQUID LYSINE and lysine (HCl) were applied as foliar liquids, while Milorganite and blended fertilizer were applied as granular fertilizers. Plot size was 4 ft×8 ft laid out in a replicated complete block design. Plots were mowed at 0.1875 inches height before fertilizer application and mowed five times per week to 0.1875 inch height. Grass clippings were removed from the plots after each mowing. Irrigation (0.15 inch) was applied following application and daily thereafter. Plots were rated for turfgrass quality (scale of 1-9 where 9=dark green turf, 1=dead/brown turf, and 6=minimally acceptable turf) and phytotoxic injury (scale of 0-9 where 9=significant foliar injury and 2=minimally objectionable foliar injury) throughout the study period. Quality was measured prior to application (day 0) and day 37, day 70 and day 95 after application. Injury was measured on day 37, day 70 and day 95 after application. Ai) additional set of turfgrass plots were fertilized with three treatments of a soy concentrate fertilizer with the same application rates and methods. The quality and phytotoxic injury of the soy concentrate fertilizer plots were measured on day 95. All data was subject to statistical analysis and significant means were determined.

[3] = Solubility of L-lysine (HCl) in water; type: physicochemical; settings: at 25° C., read-out: solubility in H2O
[4] = Monthly Rate 0.5 lbs N/1000 ft^2, Day 2
[5] = Monthly Rate 0.5 lbs N/1000 ft^2, Day 5
[6] = Monthly Rate 0.5 lbs N/1000 ft^2, Day 15
[7] = Monthly Rate 0.5 lbs N/1000 ft^2, Day 21
[8] = Monthly Rate 0.5 lbs N/1000 ft^2, Day −2 (before application)
[9] = Monthly Rate 1.0 lbs N/1000 ft^2, Day 2
[10] = Monthly Rate 1.0 lbs N/1000 ft^2, Day 5
[11] = Monthly Rate 1.0 lbs N/1000 ft^2, Day 15
[12] = Monthly Rate 1.0 lbs N/1000 ft^2, Day 21
[13] = Monthly Rate 1.0 lbs N/1000 ft^2, Day −2 (before application)
[14] = Monthly Rate 3.0 lbs N/1000 ft^2, Day 2
[15] = Monthly Rate 3.0 lbs N/1000 ft^2, Day 5
[16] = Monthly Rate 3.0 lbs N/1000 ft^2, Day 15
[17] = Monthly Rate 3.0 lbs N/1000 ft^2, Day 21
[18] = Monthly Rate 3.0 lbs N/1000 ft^2, Day −2 (before application)
[19] = Weekly Rate 0.125 lbs N/1000 ft^2, Day 37
[20] = Weekly Rate 0.125 lbs N/1000 ft^2, Day 70
[21] = Weekly Rate 0.125 lbs N/1000 ft^2, Day 95
[22] = Weekly Rate 0.25 lbs N/1000 ft^2, Day 37
[23] = Weekly Rate 0.25 lbs N/1000 ft^2, Day 70
[24] = Weekly Rate 0.25 lbs N/1000 ft^2, Day 95
[25] = Weekly Rate 0.75 lbs N/1000 ft^2, Day 37
[26] = Weekly Rate 0.75 lbs N/1000 ft^2, Day 70
[27] = Weekly Rate 0.75 lbs N/1000 ft^2, Day 95

Structure (SMILES) | Phytotoxicity - St. Augustine Grass [1, 4] | Phytotoxicity - St. Augustine Grass [1, 5] | Phytotoxicity - St. Augustine Grass [1, 6] | Phytotoxicity - St. Augustine Grass [1, 7] | Phytotoxicity - St. Augustine Grass [1, 8] | Phytotoxicity - St. Augustine Grass [1, 9] | Phytotoxicity - St. Augustine Grass [1, 10] | Phytotoxicity - St. Augustine Grass [1, 11] | Phytotoxicity - St. Augustine Grass [1, 12] | Phytotoxicity - St. Augustine Grass [1, 13] | Phytotoxicity - St. Augustine Grass [1, 14] | Phytotoxicity - St. Augustine Grass [1, 15] | Phytotoxicity - St. Augustine Grass [1, 16] | Phytotoxicity - St. Augustine Grass [1, 17] | Phytotoxicity - St. Augustine Grass [1, 18] | Injury Rating - Greens Bentgrass [2, 19] | Injury Rating - Greens Bentgrass [2, 20] | Injury Rating - Greens Bentgrass [2, 21] | Injury Rating - Greens Bentgrass [2, 22] | Injury Rating - Greens Bentgrass [2, 23] | other results
NC(N)=O [Urea, urea, reference compound] | 0.6bc | 1.6bc | 0 | 0 | 0 | 1.5b | 2.0ab | 0 | 0 | 0 | 2.8a | 3.0a | 0 | 0 | 0 | 1.0b | 1.3 | 3.0ab | 1.0b | 1.0 | phytotoxicity ([1]; 1.0 lb N/1000 ft^2 and 3.0 lb N/1000 ft^2 application rate): some phytotoxicity; Injury Rating - Greens Bentgrass [2, 24]: 2.0ab; Injury Rating - Greens Bentgrass [2, 25]: 1.0b; Injury Rating - Greens Bentgrass [2, 26]: 1.0; Injury Rating - Greens Bentgrass [2, 27]: 2.7ab
Cl.NCCCC[C@H](N)C(=O)O [Lys (HCl) 15% N, L-lysine monohydrochloride] | 0.0c | 0.4cd | 0 | 0 | 0 | 0.0c | 1.1bcd | 0 | 0 | 0 | 0.4bc | 1.1bcd | 0 | 0 | 0 | 1.0b | 1.0 | 2.3ab | 1.0b | 1.0 | Injury Rating - Greens Bentgrass [2, 24]: 2.7ab; Injury Rating - Greens Bentgrass [2, 25]: 2.0a; Injury Rating - Greens Bentgrass [2, 26]: 1.3; Injury Rating - Greens Bentgrass [2, 27]: 2.3ab; solubility [3]: 500 to 600 mg/mL
